Test results published in patent US20100099731A1, “Use of Endothelial Interrupters in the Treatment of Neurodegenerative Diseases” (Texas Tech University System, priority 2008, published 2010).
“Also recorded” adds a separate entry of the source.

Columns and labels:
Endothelial cells [1] = experiment: Menadione-induced MMP-9 release from endothelial cells, indirect ELISA; format: cell-based
[2] = test system: AD transgenic mouse APPSWE 2576; experiment: Radial arm maze, AD transgenic mice treated with Sunitinib malate; format: in vivo; conditions: Sunitinib malate 40 mg/kg daily in diet; vs untreated AD mice receiving vehicle; p<0.05
[3] = test system: brain-derived endothelial cells (EC150); experiment: MMP-9 release from brain endothelial cells, indirect ELISA; format: cell-based; conditions: 0-500 nM Sunitinib malate, 4 h; p<0.001 vs cells without drug
Endothelial cells [4] = experiment: Menadione-mediated TNF-α release from endothelial cells, indirect ELISA; format: cell-based; conditions: 500 nM Sunitinib malate 4 h prior to (Pre), simultaneously (Co) or after (Post) 4 h menadione 25 μM
Rats [5] = experiment: Intracerebroventricular thrombin infusion in rats, radial eight-arm maze and neuropathology; format: in vivo, rat
Procedure: Thrombin, a mediator of neurotoxicity and memory impairment. Thrombin has been found in neuritic plaques in AD. Also, traumatic brain injury, where neurons are exposed to high thrombin levels is associated with an increased incidence of AD. Our objective was to determine the effects of thrombin administered in vivo on cognitive function and neuropathology. Rats were trained using a radial eight-arm maze and then thrombin (25 or 100 nM, […], 28 days) or vehicle was delivered via intra cerebroventricular infusion. […] Thrombin-induced changes in cognitive function and ventricular enlargement were inhibited by hirudin.

Rats [6] = experiment: Intracerebroventricular thrombin infusion in rats, apolipoprotein-E levels; format: in vivo, rat; conditions: thrombin 100 nM, 0.25 microl/hr, 28 days, i.c.v.; vs vehicle, p<0.001
Excerpt: Chronic thrombin exposure results in an increase in apolipoprotein-E levels. Studies have shown that individuals with both a history of traumatic brain injury and inheritance of apolipoprotein E-4 (ApoE4) allele are associated with a poor neurologic outcome and an increased risk for Alzheimer's disease. We assessed the hypothesis that thrombin released during brain injury causes an increase in apolipoprotein-E levels and such increase in the levels of apolipoprotein-E4 isoform may have amyloidogenic effects. Rats received either thrombin (100 nM, 0.25 microl/hr, 28 days) or vehicle via intracerebroventricular infusion. […] Such increase in Apolipoprotein-E4 isoform facilitates beta-amyloid deposition and cognitive deficits (Reference, item # 9).

[7] = test system: cultured brain endothelial cells; experiment: TIMP expression in cultured brain endothelial cells; format: cell-based
Excerpt: Angiogenic proteins are expressed by brain blood vessels in AD. Data are emerging to support the idea that mediators of angiogenesis are found in the AD brain. The objective of this study is to compare the expression of the angiogenic mediator's vascular endothelial growth factor (VEGF), angiopoietin, and matrix metalloproteinases (MMPs) in the microcirculation of AD patients and age-matched controls. […] AD-derived microvessels also release higher levels of MMP-2 and MMP-9 compared to controls. […] In this regard we find high levels of the tissue inhibitor of matrix metalloproteinases-1 (TIMP-1) in AD, but not control vessels.

[8] = test system: cultured brain endothelial cells; experiment: HIF1-α expression in cultured brain endothelial cells; format: cell-based
Excerpt: Thrombin and inflammatory proteins are elevated in Alzheimer's disease microvessels: Implications for disease pathogenesis. […] The objective of this study is to determine whether levels of neurotoxic (thrombin) and inflammatory proteins (IL-8; integrins αvβ3 and αvβ5) are altered in microvessels isolated from AD patients compared to levels in vessels obtained from non-demented age-matched controls. We also evaluate expression, in AD and control microvessels, of the transcription factor hypoxiainducible factor 1-α (HIF1-α), which regulates pro-inflammatory gene expression, and the regulation of HIF1-α expression by thrombin in cultured brain endothelial cells.

[9] = test system: Rat neuronal cortical cell cultures; conditions: thrombin 100 nM or SNP 10 μM, 24 h
[10] = approved treatments for AD; cited from earlier work
[11] = test system: cultured brain endothelial cells; experiment: IL-1β and TNFα expression in brain endothelial cells treated with TGF-β, ELISA and western blot; format: cell-based; conditions: vs untreated endothelial cells
Excerpt: Cerebrovascular TGF-β contributes to inflammation in the AD brain. TGF-β plays a central role in the response of the brain to injury and is increased in the brain in AD. In this study, we determined whether expression of TGF-β was abnormal in the microvasculature in AD and whether TGF-β affected vascular production of pro-inflammatory cytokines, IL-1β and TNFα. Results from western blot analysis and ELISA indicated a higher level of TGF-β in AD vessels compared to controls. To determine whether TGF-β affects vascular release of inflammatory factors, cultured brain endothelial cells were treated with TGF-β and levels of IL-1β and TNFα determined. […] Studies have shown that TGF-β mediated signaling is critical to controlling the “angiogenic switch”.

thrombin = thrombin (Homo sapiens, UniProt P00734); experiment: ApoE4 fragment generation by endothelial cell conditioned media, western blot; format: biochemical; conditions: conditioned medium incubated with apoE4 for 24 h
Procedure: Injured endothelial cells release thrombin and generate neurotoxic apolipoprotein E fragments. The objective of this study was to determine if injured brain endothelial cells could be a source of thrombin and neurotoxic apoE fragments. Brain endothelial cells were injured by oxidant and/or inflammatory stress. This was accomplished by incubating cultured endothelial cells with either, sodium nitroprusside (SNP), inflammatory cocktail (LPS, […], IL-6, IFN-γ, TNFα) or both for 24 h. The conditioned medium was then (a) analyzed for thrombin using a chromogenic thrombin activity assay, (b) incubated with apoE4 for 24 h and then analyzed by western blot for detection of apoE4 fragments, or (c) incubated with apoE4 and added to neuronal cultures for 24 h. […] This pattern was consistent with that observed using purified thrombin and was inhibited by the thrombin inhibitor hiruidin.

Rats [12] = experiment: Infusion of human apolipoprotein-E4 into rats; format: in vivo, rat; conditions: 0.6 ng/hr, i.c.v., 56 days
[13] = In vivo cognition with acetaminophen; conditions: in vivo work
[14] = test system: rat brain endothelial cells; experiment: Cell viability (MTT) of brain endothelial cells challenged with menadione; conditions: acetaminophen pretreatment, then 25 μM menadione 2-3 h; p<0.001 vs cells without acetaminophen
Procedure: Cell viability was determined with MTT assay. Number of viable cells in untreated cells (control) was defined as 100%. Data are mean±SD of 3 separate experiments.

[15] = 100 nM thrombin, 0.25 μg/h, 28 days, intra cerebroventricular infusion
[16] = rats, thrombin intra cerebroventricular infusion

## CC1=CC(=O)c2ccccc2C1=O [menadione]
Endothelial cells [1]; brain endothelial cells exposed to menadione
  release of MMP-9 and TNFα: increased release of both MMP-9 and the inflammatory cytokine TNFα

## CCN(CC)CCNC(=O)c1c(C)[nH]c(/C=C2\C(=O)Nc3ccc(F)cc32)c1C [Sunitinib malate, Butanedioic acid, hydroxy-, (2S)-, compound with N[2-(diethylamino)ethyl]-5-[(Z)-(5-fluoro-1,2-dihydro-2-oxo-3H-indol-3-ylidine)methyl]-2,4-dimethyl-1H-pyrrole-3-carboxamide (1:1)]
[2]
  cognitive performance: total number of arm entries to complete the 8 arm radial arm maze: progressively require fewer arm entries to complete an 8 arm radial arm maze; also recorded: perform significantly (p<0.05) better than AD mice not receiving the drug
[3]
  release of matrix metalloproteinase-9 (MMP-9): significantly decreased release of matrix metalloproteinase-9 (MMP-9)
Endothelial cells [1]; 500 nM Sunitinib malate 4 h prior to (Pre), simultaneously (Co) or after (Post) 4 h menadione 25 μM
  menadione-induced release of MMP-9: decreased release of both MMP-9; also recorded: significantly decreased release of MMP-9
Endothelial cells [4]
  menadione-mediated release of TNF-α: decreased release of both MMP-9 (FIG. 4) and TNFα; also recorded: decreased menadione-mediated release of TNF-α

## thrombin
Rats [5]; [15]
  cognitive function: cognitive impairments including deficits in reference memory and an increase in task latency
  neuropathology: enlargement of cerebral ventricles, an increased number of TUNEL-positive cells, astrogliosis, and an increase in the immunoreactivity for phosphorylated neurofilament, and apolipoprotein-E fragments
Rats [6]
  apolipoprotein-E levels in hippocampus: increased apolipoprotein-E levels in hippocampus
[7]
  TIMP-1 expression: up regulation of TIMP-1
[8]
  HIF1-alpha expression: increased expression of HIF1-alpha
[9]
  cyclin D1 mRNA expression: increase in cyclin D1 expression
  neuronal apoptosis (nucleosome ELISA): evoke neuronal cell death

## CC12CC3CC(C)(C1)CC(N)(C3)C2 [Memantine]
[10]
  Side Effects: Headache, constipation.

## TGF-β
[11]
  endothelial expression of IL-1β and TNFα: robust endothelial expression of these factors

## hirudin
thrombin
  generation of apoE4 fragments (20-29 kDa) by endothelial cell conditioned media: inhibited
Rats [5]; [16]
  thrombin-induced changes in cognitive function: inhibited
  thrombin-induced ventricular enlargement: inhibited

## ApoE4: human apolipoprotein-E4 isoform infused i.c.v. into rats
Rats [12]
  beta-amyloid deposition and GFAP-positive astrocytes: beta-amyloid deposition and increased the number of GFAP-positive astrocytes
  spatial memory: significant spatial memory deficits

## CC(=O)Nc1ccc(O)cc1 [acetaminophen, 4′-hydroxyacetanilide]
[13]
  cognition: improved cognition
[14]
  cell survival (MTT): significant increase in cell survival; also recorded: Cell survival increases significantly
